# Laboratory results published in patent US8835377B2, “Oral delivery of peptide pharmaceutical compositions” (UGP Therapeutics, Inc., priority 2004, dated 2014).
# Assay: Pharmacokinetics after oral capsules (sCT plus Dmt-DALDA with citric acid and lauroyl carnitine), non-enteric coated or enteric coated, in fasted beagle dogs (plasma; ELISA for sCT, HPLC-MS for Dmt-DALDA)
# Type: in vivo
# Conditions: for AUC / Cmax: normalized to a 1 mg dose; for Tmax / Cmax: beagle, dog, plasma, oral; for plasma peptide concentration normalized to a 1 mg dose: enteric coated capsule
# Procedure: A second series of tests was carried out, as noted above, using beagle dogs. […] In the experiments represented in FIGS. 2A and 2B, size 00 […] capsules were each filled with 758 mg of a powdered blend consisting of citric acid (643 mg), lauroyl carnitine (66 mg), talc (33 mg), salmon calcitonin (sCT) (13 mg) and Dmt-DALDA (2.4 mg). Half of the capsules were coated with an enteric coating solution of L30D-55, while the remaining 50% of the capsules were not coated. Four fasted dogs were each given 1 uncoated capsule, and 2 weeks later they were each given an enteric coated capsule. After administration of each capsule, samples of blood were taken at 15 minute intervals from an indwelling catheter for up to 4 hours. The blood samples were centrifuged and the resulting plasma supernatants were stored frozen at −20° C. The plasma samples were subsequently analyzed for sCT by a direct ELISA, and for Dmt-DALDA by HPLC-mass spectrometry performed as set forth in Wan, H. and Desiderio, D., Quantitation of [DMT^1] DALDA in ovine plasma by on-line liquid chromatography/quadrapole time-of-flight mass spectrometry, Rapid Communications in Mass Spectrometry, 2003; 17, 538-546, the contents of which are incorporated herein by reference.
# The results summarized in FIGS. 2A and 2B as plasma peptide concentration normalized to a 1 mg dose as a function of time relative to the average Tmax, (i.e., the time at which the maximum amount of peptide was detected) indicate that both peptides, i.e., sCT and Dmt-DALDA, were detected in dogs given uncoated or enteric coated capsules. […] Table DI (below) sets forth the values upon which the curves in FIGS. 2A and 2B are based. The results are summarized in the tables as plasma peptide concentration normalized to a 1 mg dose as a function of time. Table III, moreover, provides the standard deviations for the data obtained regarding each of the test dogs, which standard deviations are also indicated in FIGS. 2A and 2B.
# Table IV (below) summarizes the pharmacokinetic parameters in dogs of orally administered sCT and Dmt-DALDA when administered in non-enteric coated versus enteric coated capsules. Peptide was not detected from 1 dog in each group due to (a) Dog 3 vomiting the uncoated capsule and (b) delayed gastric emptying in Dog 2 provided with an enteric coated capsule. Cmax and AUC are as defined with regard to Table H above.
# [1] = Non-Enteric Capsule, Avg (n = 3)
compound,measurement,setting,value
"Cc1cc(O)cc(C)c1C[C@H](N)C(=O)N[C@H](CCCNC(=N)N)C(=O)N[C@@H](Cc1ccccc1)C(=O)N[C@@H](CCCCN)C(N)=O [Dmt-DALDA, H-2,6-dimethyltyrosine-D-Arginine-Phenylalanine-Lysine-NH2]",AUC,"Enteric Capsule, Avg (n = 3)",1443143 pg/mL-min
same,AUC,"Enteric Capsule, Dog 1",2375695 pg/mL-min
same,AUC,"Enteric Capsule, Dog 2 (delayed gastric emptying)",0 pg/mL-min
same,AUC,"Enteric Capsule, Dog 3",1185373 pg/mL-min
same,AUC,"Enteric Capsule, Dog 4",768361 pg/mL-min
same,AUC,[1],542977 pg/mL-min
same,AUC,"Non-Enteric Capsule, Dog 1",410944 pg/mL-min
same,AUC,"Non-Enteric Capsule, Dog 2",707054 pg/mL-min
same,AUC,"Non-Enteric Capsule, Dog 3 (vomited capsule)",0 pg/mL-min
same,AUC,"Non-Enteric Capsule, Dog 4",510934 pg/mL-min
same,Tmax,"Enteric Capsule, Avg (n = 3)",100 min
same,Cmax,"Enteric Capsule, Avg (n = 3)",21 ng/mL
same,Tmax,"Enteric Capsule, Dog 1",45 min
same,Cmax,"Enteric Capsule, Dog 1",29.4 ng/mL
same,Tmax,"Enteric Capsule, Dog 3",135 min
same,Cmax,"Enteric Capsule, Dog 3",21.5 ng/mL
same,Tmax,"Enteric Capsule, Dog 4",120 min
same,Cmax,"Enteric Capsule, Dog 4",12.1 ng/mL
same,Tmax,[1],40 min
same,Cmax,[1],5.79 ng/mL
same,Tmax,"Non-Enteric Capsule, Dog 1",45 min
same,Cmax,"Non-Enteric Capsule, Dog 1",5.1 ng/mL
same,Tmax,"Non-Enteric Capsule, Dog 2",30 min
same,Cmax,"Non-Enteric Capsule, Dog 2",6.47 ng/mL
same,Tmax,"Non-Enteric Capsule, Dog 4",45 min
same,Cmax,"Non-Enteric Capsule, Dog 4",5.79 ng/mL
same,"Cmax and AUC, enteric coated capsules versus non enteric-coated capsules",dogs,significantly enhanced
same,Cmax of enteric coated relative to non enteric coated,dogs,4 fold
same,"amount of peptide detected in plasma, enteric coated capsules vs non-coated capsules",dogs,nearly four times as much
same,time at which the maximum concentration was seen,dogs given coated capsules,105 min
same,amount of Dmt-DALDA detected relative to sCT,dogs given enteric coated capsules,nearly equal amounts
same,amount of Dmt-DALDA detected relative to sCT,dogs given uncoated capsules,nearly three times as much
same,time at which the maximum concentration was seen,dogs given uncoated capsules,30 min
same,plasma peptide concentration normalized to a 1 mg dose,"Dog 1, 0 min",0 pg/mL
same,plasma peptide concentration normalized to a 1 mg dose,"Dog 1, 15 min",0 pg/mL
same,plasma peptide concentration normalized to a 1 mg dose,"Dog 1, 30 min",0 pg/mL
same,plasma peptide concentration normalized to a 1 mg dose,"Dog 1, 45 min",29440 pg/mL
same,plasma peptide concentration normalized to a 1 mg dose,"Dog 1, 60 min",25224 pg/mL
same,plasma peptide concentration normalized to a 1 mg dose,"Dog 1, 75 min",19768 pg/mL
same,plasma peptide concentration normalized to a 1 mg dose,"Dog 1, 90 min",19021 pg/mL
same,plasma peptide concentration normalized to a 1 mg dose,"Dog 1, 105 min",12324 pg/mL
same,plasma peptide concentration normalized to a 1 mg dose,"Dog 1, 120 min",8108 pg/mL
same,plasma peptide concentration normalized to a 1 mg dose,"Dog 1, 135 min",10714 pg/mL
same,plasma peptide concentration normalized to a 1 mg dose,"Dog 1, 150 min",9349 pg/mL
same,plasma peptide concentration normalized to a 1 mg dose,"Dog 1, 165 min",6743 pg/mL
same,plasma peptide concentration normalized to a 1 mg dose,"Dog 1, 180 min",5502 pg/mL
same,plasma peptide concentration normalized to a 1 mg dose,"Dog 1, 195 min",5008 pg/mL
same,plasma peptide concentration normalized to a 1 mg dose,"Dog 1, 210 min",3021 pg/mL
same,plasma peptide concentration normalized to a 1 mg dose,"Dog 2 (delayed gastric emptying), 0 min",0 pg/mL
same,plasma peptide concentration normalized to a 1 mg dose,"Dog 2 (delayed gastric emptying), 15 min",0 pg/mL
same,plasma peptide concentration normalized to a 1 mg dose,"Dog 2 (delayed gastric emptying), 30 min",0 pg/mL
same,plasma peptide concentration normalized to a 1 mg dose,"Dog 2 (delayed gastric emptying), 45 min",0 pg/mL
same,plasma peptide concentration normalized to a 1 mg dose,"Dog 2 (delayed gastric emptying), 60 min",0 pg/mL
same,plasma peptide concentration normalized to a 1 mg dose,"Dog 2 (delayed gastric emptying), 75 min",0 pg/mL
same,plasma peptide concentration normalized to a 1 mg dose,"Dog 2 (delayed gastric emptying), 90 min",0 pg/mL
same,plasma peptide concentration normalized to a 1 mg dose,"Dog 2 (delayed gastric emptying), 105 min",0 pg/mL
same,plasma peptide concentration normalized to a 1 mg dose,"Dog 2 (delayed gastric emptying), 120 min",0 pg/mL
same,plasma peptide concentration normalized to a 1 mg dose,"Dog 2 (delayed gastric emptying), 135 min",0 pg/mL
same,plasma peptide concentration normalized to a 1 mg dose,"Dog 2 (delayed gastric emptying), 150 min",0 pg/mL
same,plasma peptide concentration normalized to a 1 mg dose,"Dog 2 (delayed gastric emptying), 165 min",0 pg/mL
same,plasma peptide concentration normalized to a 1 mg dose,"Dog 2 (delayed gastric emptying), 180 min",0 pg/mL
same,plasma peptide concentration normalized to a 1 mg dose,"Dog 2 (delayed gastric emptying), 195 min",0 pg/mL
same,plasma peptide concentration normalized to a 1 mg dose,"Dog 2 (delayed gastric emptying), 210 min",0 pg/mL
same,plasma peptide concentration normalized to a 1 mg dose,"Dog 3, 0 min",0 pg/mL
same,plasma peptide concentration normalized to a 1 mg dose,"Dog 3, 15 min",0 pg/mL
same,plasma peptide concentration normalized to a 1 mg dose,"Dog 3, 30 min",0 pg/mL
